Consider 26 molecules from ChEMBL document CHEMBL1129095, “Design and synthesis of new antagonist peptides for platelet GPIIb/IIIa receptor as anti-thrombotic agents” (Bioorg Med Chem Lett, 1996).

Non-standard residues stand in square brackets, D forms with d. Residues, ends and D or L forms follow the SMILES beside them. *: point of attachment. Butyryl(4-indol-3-yl) = O=C(CCCc1c[nH]c2ccccc12)*; Dihydroorotyl(S) = O=C1C[C@@H](C(=O)*)NC(=O)N1; Phthalimidoacetyl = O=C1c2ccccc2C(=O)N1CC(=O)*; X4 = COc1ccc2[nH]c(C)c(CC(=O)*)c2c1; Hyp = O=C(O)[C@@H]1C[C@@H](O)CN1; X8 = COc1ccc2[nH]cc(CC(=O)*)c2c1; X7 = Cc1[nH]c2ccccc2c1CC(=O)*; pGlu = O=C1CC[C@@H](C(=O)O)N1; X2 = O=C(Cc1c[nH]c2ccccc12)*; NMePro = CN1CCC[C@H]1C(=O)*; X6 = O=C1NC(=O)C(CC(=O)*)N1; X1 = O=C1N[C@H](C(=O)*)CS1; Pip = O=C(O)[C@@H]1CCCCN1; X3 = O=C(c1cc(O)nc(O)n1)*; Thz = O=C(O)[C@@H]1CSCN1; Aze = O=C(O)[C@@H]1CCN1; X5 = O=C([C@@H]1CCCO1)*; PhAc = O=C(Cc1ccccc1)*; Bz = O=C(c1ccccc1)*

Test system in one data set: not listed separately
In words: T1/2 was evaluated in human plasma. It counts as ADME, cell-free.
In general, half-life refers to the time in which the quantity being followed falls by half. Lower therefore signals rapid decline. Regarding H-WSRGDW-OH, the half-life came to 11 min.

The species entered for another data set is Homo sapiens. In words: Inhibition of collagen-induced human platelet aggregation. It counts as functional.
One may read the IC50 as the point on the concentration scale where inhibition reaches its midpoint. Low readings indicate greater potency in that assay, high ones weaker potency in that assay. `N=C(N)NCCC[C@H](NC(=O)[C@H](CO)NC(=O)[C@@H]1CCCN1)C(=O)NCC(=O)N[C@@H](CC(=O)O)C(=O)N[C@@H](Cc1c[nH]c2ccccc12)C(=O)O`: the IC50 amounted to 0.87 µM. The same measure, in the same setting: the value for `N=C(N)NCCC[C@H](NC(=O)[C@H](CO)NC(=O)[C@H]1CCCN1)C(=O)NCC(=O)N[C@@H](CC(=O)O)C(=O)N[C@@H](Cc1c[nH]c2ccccc12)C(=O)O` was 33 µM; that for `N=C(N)NCCC[C@H](NC(=O)[C@H](CO)NC(=O)c1ccccc1)C(=O)NCC(=O)N[C@@H](CC(=O)O)C(=O)N[C@@H](Cc1c[nH]c2ccccc12)C(N)=O` (Bz-SRGDW-NH2) was 34 µM; that for `NC(=O)[C@H](Cc1ccccc1)NC(=O)[C@H](CC(=O)O)NC(=O)CNC(=O)[C@@H](N)CCCN=C(N)N` (H-RGDF-NH2) was 50 µM. For the molecule `N=C(N)NCCC[C@H](NC(=O)[C@H](CO)NC(=O)[C@@H]1CCN1)C(=O)NCC(=O)N[C@@H](CC(=O)O)C(=O)N[C@@H](Cc1c[nH]c2ccccc12)C(=O)O` (H-[Aze]SRGDW-OH), the 50% inhibitory concentration (IC50) worked out at 1.3 µM.

In the case of `N=C(N)NCCC[C@H](NC(=O)[C@H](CO)NC(=O)[C@@H]1C[C@@H](O)CN1)C(=O)NCC(=O)N[C@@H](CC(=O)O)C(=O)N[C@@H](Cc1c[nH]c2ccccc12)C(=O)O` (H-[Hyp]SRGDW-OH), 28 µM corresponded to half-maximal inhibition (IC50). `N=C(N)NCCC[C@H](NC(=O)[C@H](CO)NC(=O)[C@@H]1CCCCN1)C(=O)NCC(=O)N[C@@H](CC(=O)O)C(=O)N[C@@H](Cc1c[nH]c2ccccc12)C(=O)O` (H-[Pip]SRGDW-OH) yielded an IC50 of 11 µM. This IC50 is about 2.5-fold lower than that of the molecule before. Same read-out and setting: for `N=C(N)NCCC[C@H](NC(=O)[C@H](CO)NC(=O)[C@@H]1CSCN1)C(=O)NCC(=O)N[C@@H](CC(=O)O)C(=O)N[C@@H](Cc1c[nH]c2ccccc12)C(=O)O` (H-[Thz]SRGDW-OH) the value was 27 µM. The same measure, in the same setting: for `CN1CCC[C@H]1C(=O)N[C@@H](CO)C(=O)N[C@@H](CCCN=C(N)N)C(=O)NCC(=O)N[C@@H](CC(=O)O)C(=O)N[C@@H](Cc1c[nH]c2ccccc12)C(=O)O` (NMePro-SRGDW-OH) the value was 20 µM; for `N=C(N)NCCC[C@H](NC(=O)[C@H](CO)NC(=O)Cc1ccccc1)C(=O)NCC(=O)N[C@@H](CC(=O)O)C(=O)N[C@@H](Cc1c[nH]c2ccccc12)C(N)=O` (PhAc-SRGDW-NH2), 59 µM. Same read-out and setting: the value for `N=C(N)NCCC[C@H](NC(=O)[C@H](CO)NC(=O)CN1C(=O)c2ccccc2C1=O)C(=O)NCC(=O)N[C@@H](CC(=O)O)C(=O)N[C@@H](Cc1c[nH]c2ccccc12)C(N)=O` (Phthalimidoacetyl-SRGDW-NH2) was 21 µM; that for `N=C(N)NCCC[C@H](NC(=O)[C@H](CO)NC(=O)[C@@H]1CSC(=O)N1)C(=O)NCC(=O)N[C@@H](CC(=O)O)C(=O)N[C@@H](Cc1c[nH]c2ccccc12)C(=O)O` (X1-SRGDW-OH) was 12 µM. `N=C(N)NCCC[C@H](NC(=O)[C@H](CO)NC(=O)Cc1c[nH]c2ccccc12)C(=O)NCC(=O)N[C@@H](CC(=O)O)C(=O)N[C@@H](Cc1c[nH]c2ccccc12)C(=O)O` (X2-SRGDW-OH) had an IC50 of 21 µM.

`N=C(N)NCCC[C@H](NC(=O)[C@H](CO)NC(=O)c1cc(O)nc(O)n1)C(=O)NCC(=O)N[C@@H](CC(=O)O)C(=O)N[C@@H](Cc1c[nH]c2ccccc12)C(=O)O` (X3-SRGDW-OH) gave an IC50 of 4 µM. `COc1ccc2[nH]c(C)c(CC(=O)N[C@@H](CO)C(=O)N[C@@H](CCCN=C(N)N)C(=O)NCC(=O)N[C@@H](CC(=O)O)C(=O)N[C@@H](Cc3c[nH]c4ccccc34)C(=O)O)c2c1` (X4-SRGDW-OH) had an IC50 of 25 µM. As for `N=C(N)NCCC[C@H](NC(=O)[C@H](CO)NC(=O)[C@@H]1CCCO1)C(=O)NCC(=O)N[C@@H](CC(=O)O)C(=O)N[C@@H](Cc1c[nH]c2ccccc12)C(=O)O` (X5-SRGDW-OH), the IC50 stood at 21 µM.

For `N=C(N)NCCC[C@H](NC(=O)[C@H](CO)NC(=O)CC1NC(=O)NC1=O)C(=O)NCC(=O)N[C@@H](CC(=O)O)C(=O)N[C@@H](Cc1c[nH]c2ccccc12)C(=O)O` (some centres not stated) (X6-SRGDW-OH), half-maximal inhibition (IC50) required 6.9 µM.

In turn, `Cc1[nH]c2ccccc2c1CC(=O)N[C@@H](CO)C(=O)N[C@@H](CCCN=C(N)N)C(=O)NCC(=O)N[C@@H](CC(=O)O)C(=O)N[C@@H](Cc1c[nH]c2ccccc12)C(=O)O` (X7-SRGDW-OH) gave a 50% inhibitory concentration (IC50) of 22 µM. Still for that read-out and setting: the value for `COc1ccc2[nH]cc(CC(=O)N[C@@H](CO)C(=O)N[C@@H](CCCN=C(N)N)C(=O)NCC(=O)N[C@@H](CC(=O)O)C(=O)N[C@@H](Cc3c[nH]c4ccccc34)C(=O)O)c2c1` (X8-SRGDW-OH) was 11 µM; that for `N=C(N)NCCC[C@H](NC(=O)[C@H](CO)NC(=O)[C@@H]1CCC(=O)N1)C(=O)NCC(=O)N[C@@H](CC(=O)O)C(=O)N[C@@H](Cc1c[nH]c2ccccc12)C(=O)O` ([pGlu]SRGDW-OH) was 5.6 µM. In the case of `N=C(N)NCCC[C@H](NC(=O)[C@H](CO)NC(=O)CCCc1c[nH]c2ccccc12)C(=O)NCC(=O)N[C@@H](CC(=O)O)C(=O)N[C@@H](Cc1c[nH]c2ccccc12)C(=O)O` ({Butyryl(4-indol-3-yl)}-SRGDW-OH), half-maximal inhibition (IC50) required 21 µM. Compared with the last molecule, the IC50 is about 3.8-fold higher. Still for that read-out and setting: the value for `N=C(N)NCCC[C@H](NC(=O)[C@H](CO)NC(=O)[C@@H]1CC(=O)NC(=O)N1)C(=O)NCC(=O)N[C@@H](CC(=O)O)C(=O)N[C@@H](Cc1c[nH]c2ccccc12)C(=O)O` ({Dihydroorotyl(S)}-SRGDW-OH) was 8.7 µM. In the case of Ac-PSRGDW-OH, the IC50 is 50 µM. This IC50 lies about 5.7-fold higher than the previous one. Molecule Ac-SRGDW-NH2 returned an IC50 of 74 µM. The molecule H-FSRGDW-OH returned an IC50 of 23 µM.

H-WSRGDW-OH displayed an IC50 of 6.8 µM.
